The text below walks through data of patent US20260355189A1, “SMALL MOLECULE INHIBITORS OF NEUTROPHIL EXOCYTOSIS AND INFLAMMATION” (THE SCRIPPS RESEARCH INSTITUTE, priority 2022, published 2026).

The test system of one assay is mouse neutrophils. As to the kind of experiment: Isoluminol-dependent chemiluminescence assay of MPO secretion in purified mouse neutrophils. The format is cell-based. The note with it: 10 μM inhibitor, PMA stimulated, FIG. 3B. From the text: FIGS. 3A-C illustrate the effect of Inhibitors C1, C2, C4, C5, and C6 and comparator Nexinhib 20 (shown as “C20”) on MPO secretion of mouse neutrophils. FIG. 3A is a schematic representation of a cell-based secondary screening assay used to analyze the potency the potency of Rab27a-JFC1 inhibitors for their ability to decrease exocytosis of intact human neutrophil. This cell-based assay measures the secretion of myeloperoxidase (MPO) by human neutrophils using cell-impermeant isoluminol-dependent chemiluminescence in the absence of exogenous peroxidases.
Human neutrophils were isolated from normal donor's blood by Ficoll density centrifugation, as described previously (23). Murine bone marrow-derived neutrophils were isolated using a Percoll gradient fractionation system as described (24). A three-layer Percoll gradient was used (52%, 64%, and 72%), and neutrophils were isolated from the 64-72% interface, washed, and used in the assays.
Extracellular MPO-dependent reactive oxygen species (ROS) production was measured using the chemiluminescence reactions mediated by isoluminol (25). To this end, 3×10^5 neutrophils were resuspended in serum-free RPMI 1640 medium in the presence of cell-impermeant isoluminol, and reactions were carried out in the absence of exogenous peroxidase. Neutrophils were incubated in the presence of compounds or DMSO (0.5%) pin-tooled into 384-well plates in a […]. Control experiments were run in parallel in the presence of [COMPOUND LEFT OUT] (0.5 mM) to inhibit endogenous myeloperoxidase. After addition of stimuli (phorbol 12-myristate 13-acetate, “PMA”) or vehicle using liquid handling devices (BioRaptor FRD, Beckman Coulter), MPO-dependent chemiluminescence was continuously monitored for 30 min at 37 °C using a 2104 EnVision multilabel plate reader. For secretion assays, 0.5×10^6 neutrophils were incubated in RPMI 1640 medium in polystyrene 96-well plates in the presence of Inhibitors or dimethyl sulfoxide (DMSO) control for 1 hour and stimulated for the indicated times at 37 °C with PMA (0.1 μg/ml), GM-CSF (10 ng/ml), and fMLP (1 μM) or DMSO control. The cells were spun down, and supernatants were transferred to clean plates using plate filters to avoid contamination from cellular secretory proteins. MPO was measured by ELISA (R&D Systems).
Results: FIG. 3B is a graph showing the effect of Inhibitors C1, C2, C4, C5, and C6 on secreted MPO-dependent reaction using the isoluminol-dependent chemiluminescence assay in highly purified mouse neutrophils. On the graph of FIG. 3B, the pre-fix “NS” means “no stimuli” where the cells were treated with 10 μM C1, C2, C4, C5, C6, and C20 alone without any exocytosis stimuli. The pre-fix “PMA” means the cells were stimulated with PMA to secrete MPO and were treated with 10 μM of the designated Inhibitor. […] Mean % inhibition: C1, 76.74; C2, 59.85; C4, 70.9; C6, 62.4; C20, 99.22.

The test system of a further assay is LPS-challenged mice. As to the kind of experiment: LPS-induced systemic inflammation (endotoxemia/sepsis), plasma cytokines. The format is in vivo, mouse. The note with it: for IL-10 levels: FIG. 10B. How it is done:
FIG. 10A-B. Treatment with compound NEIa-C6 inhibits pro-inflammatory cytokine production in a model of sepsis. We tested the ability of C6 to protect mice from LPS-induced systemic inflammation. In these experiments, mice (n=4 independent mice per group) receive NEIa-C6 (30 mg/Kg) or vehicle by a single i.p. injection and two hours later, the animals are challenged with a single i.p. injection of lipopolysaccharide (LPS, 8 mg/Kg) or PBS (vehicle for LPS). Four hours after LPS/PBS insult, blood is collected and cytokines are analyzed in plasma using multiplex technology.
To test whether Nexinhibs, and in particular NEIa-C6, have additional protective properties in inflammation models relevant to human disease, independent of inflammasome activation, we tested the ability of C6 to protect mice from LPS-induced systemic inflammation. In these experiments, mice received NEIa-C6 (30 mg/Kg) or vehicle by a single i.p. injection and two hours later, the animals are challenged with a single i.p. injection of lipopolysaccharide (LPS, 8 mg/Kg), an important outer membrane component of gram-negative bacteria. In this model, endotoxemia insult induces the production of pro-inflammatory cytokines. To test the possible anti-inflammatory effect of NEIa-C6, we comparatively analyzed cytokine levels in plasma of LPS-insulted and control mice using multiplex technology.

[1] abbreviates: 30 mg/Kg i.p., LPS 8 mg/Kg, plasma, FIG. 10A.

The inhibition is the percentage by which the read-out fell short of the control. Lower therefore signals a response near the control. In the case of `CCN(CC)CCNC(=O)/C(=C/c1cccc([N+](=O)[O-])c1)n1cncn1` [154 (C6)], the “Inhibition of exocytosis vs DMSO control” value in the assay with mouse neutrophils is on record as “significant inhibition of exocytosis”. In the assay on mouse neutrophils (Mus musculus, Neutrophil), this compound had an inhibition at 10 µM of 62.4%. Besides, the “Production of pro-inflammatory cytokines” value in the assay on LPS-challenged mice (30 mg/Kg i.p. 2 h before LPS 8 mg/Kg, plasma 4 h after LPS, FIG. 10A) is reported as “inhibit the production of the indicated pro-inflammatory cytokines”. Besides, in the assay on LPS-challenged mice (setting [1]), the GM-CSF production result is listed as “significantly decreases”, the IL-1β production entry is “significantly decreases”, the IL-17 levels result is “decreased” and the MIP-2 levels entry is on record as “decreased”. The TL-3 levels entry with LPS-challenged mice (setting [1]) is given as “decreases”. Moreover, the IL-10 levels entry in the assay on LPS-challenged mice (30 mg/Kg i.p., LPS 8 mg/Kg, plasma, listed as C6) is reported as “increases the production of IL-10”. Besides, in the assay with LPS-challenged mice (30 mg/Kg i.p., LPS 8 mg/Kg, plasma, listed as NEIa-C6), the IL-10 levels entry was “increased the levels of IL-10”.
